{"source": "patent US20200261463A1", "about": "“TREATMENT OF CANCER USING ARYL DIHYDRO-2H-BENZO[B][1,4]OXAZINE SULFONAMIDE COMPOUNDS” (Lycera Corporation, priority 2017, published 2020)", "test_system": "bladder cancer", "test": "Administration of Compound A to human patient suffering from bladder cancer (CT imaging)", "format": "in vivo", "conditions": "450 mg orally two times per day for two months"}
{"smiles": "CC(C)(C[C@H]1CN(S(=O)(=O)c2cccc(C(F)(F)F)c2)c2cc(-c3cc(F)cc(OC(F)F)c3)ccc2O1)C(=O)O", "note": "[Compound A]", "values": [{"measurement": "reduction in bladder cancer burden compared to burden at start of treatment", "value": 24, "unit": "%"}]}
